The target in the assay is OTU domain-containing protein 3 (Homo sapiens) (UniProt Q5T2D3). In words: Validation of screening hits, potency titration, in vitro enzymatic, OTU domain-containing protein 3 DUB inhibitors (AID 1645868). The conditions noted are these: purified OTUD3, ubiquitin-rhodamine cleavage fluorescence, 2 h.

pIC50: −log10 of the molar value. Activity calls are given as the source filed them.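 The calls were made as follows: active = maximal percent inhibition of the deubiquitinase OTUD3 of at least 30% across the tested doses; inactive = the rest.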 A value given as a limit tells only on which side of the number the result lay.

Chain of OTU domain-containing protein 3 (Homo sapiens) (Q5T2D3 whole entry, looked up, the tested form may be a part): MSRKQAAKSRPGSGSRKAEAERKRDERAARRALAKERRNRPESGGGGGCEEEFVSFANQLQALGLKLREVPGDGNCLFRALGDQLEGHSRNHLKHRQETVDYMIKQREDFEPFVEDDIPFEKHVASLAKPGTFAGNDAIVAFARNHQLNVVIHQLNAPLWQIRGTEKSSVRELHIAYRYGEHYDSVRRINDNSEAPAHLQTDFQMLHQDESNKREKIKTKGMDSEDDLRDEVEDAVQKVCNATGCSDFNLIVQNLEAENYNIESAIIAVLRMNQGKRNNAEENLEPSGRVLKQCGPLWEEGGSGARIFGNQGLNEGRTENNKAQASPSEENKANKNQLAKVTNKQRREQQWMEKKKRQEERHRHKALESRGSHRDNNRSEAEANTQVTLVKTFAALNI

A word on the IC50: it is the concentration needed to halve the response being measured. As to `CCc1nc2cc(NC(=O)c3cccc(N4CCCC4=O)c3)ccc2n1C`, the IC50 is > 50 µM (inactive).

One may read the pIC50 as the negative decadic logarithm of the IC50, by convention in mol/L. `NS(=O)(=O)c1ccc(NS(=O)(=O)c2ccc(NC(=O)Nc3ccc(Cl)cc3)cc2)cc1`: the pIC50 was 4.42.

As for `CSc1ccccc1C(=O)Nc1nc(-c2ccncc2)cs1`, the pIC50 is 4.33.

For the compound `CCc1ccc(C(C)NC(=O)C2CCN(c3ccc4nncn4n3)CC2)cc1` (stereo not given), the IC50 is > 50 µM (inactive).

With `Cc1c(C(=O)Nc2cccc(C(F)(F)F)c2)cnn1-c1ccccn1`, the IC50 was > 50 µM (inactive).

On to `CCCc1nc2sc3c(NCCCN4CCOCC4)ncnc3c2c2c1CCC2`, for which the IC50 is > 50 µM (inactive).

As to `Cc1cc(C(=O)Nc2cc(C)n(Cc3ccc(Cl)cc3)n2)no1`, the IC50 was > 50 µM (inactive).

For the compound `COc1ccc(-c2nnc(SCc3ccccc3C#N)o2)c(OC)c1`, the IC50 is > 50 µM (inactive).

For `Cc1ccccc1OCCC(=O)Nc1cccc(S(=O)(=O)Nc2ccccc2Cl)c1`, the IC50 is > 50 µM (inactive).

In the case of `COC(=O)c1ccc(NC(=O)CSc2nnc(-c3ccc(O)cc3)n2Cc2ccco2)cc1`, the IC50 was > 50 µM (inactive).

As to `CCOc1ccc(CCNC(=O)CCC(=O)Nc2ccc3nc(N4CCN(C)CC4)cc(C)c3c2)cc1OCC`, the IC50 is > 50 µM (inactive).

For the compound `O=C(NCc1ccc(F)cc1)C1CCN(c2cnc(N3CCCCC3)nc2)CC1`, the IC50 was > 50 µM (inactive).

Turning to `COc1cc(/C=C/C(=O)OCC(=O)Nc2ccc([N+](=O)[O-])cc2OC)ccc1O`, the pIC50 was 4.61.

As for `O=C(COc1ccc(Cl)cc1Cl)Nc1ccccc1-c1nc2ccccc2[nH]1`, the pIC50 is 5.21.

As to `Cn1c(=O)[nH]c2nncnc2c1=O`, the IC50 was > 50 µM (inactive).

Turning to `O=C(NCc1nc(-c2ccc3c(c2)[nH]c(=O)n3C2CCCC2)no1)c1ccccc1`, the IC50 was > 50 µM (inactive).

Turning to `COc1cccc(-c2nc3cnccn3c2NCc2ccc3c(c2)OCO3)c1`, the IC50 is > 50 µM (inactive).

Consider `COc1cccc2c1NC(=O)C21CCN(C(=O)Nc2cccc(C)c2)CC1`, for which the pIC50 was 4.86.

Take `FC(F)(F)c1cccc(CSc2ccc3nnc(-c4ccccn4)n3n2)c1`: the IC50 was > 50 µM (inactive).

For the compound `Cc1ccc(C2=Nc3ccccc3N(CC(=O)Nc3cccc(C)c3C)C(=O)C2)cc1C`, the IC50 is > 50 µM (inactive).

As to `COc1ccc(OCCn2c(C3CC(=O)N(c4cccc(C)c4)C3)nc3ccccc32)cc1` (stereo not given), the pIC50 is 5.62.

Consider `CCOc1ccccc1NC(=O)Cn1c(-c2ccc3c(c2)OCO3)cn(-c2ccc(OC)cc2)c1=O`, for which the IC50 was > 50 µM (inactive).

For `CCn1c(=O)c(=O)[nH]c2cc(C(=O)Nc3cccc(-c4csc(C)n4)c3)ccc21`, the IC50 is > 50 µM (inactive).

With `COc1ccc(-c2cc(N3CCC(NC(=O)c4ccccc4)C3)n[nH]2)cc1` (stereo not given), the pIC50 was 4.73.

Regarding `Cc1nn(C)c2c1[C@@H](c1ccc(F)cc1)[C@H](NC(=O)c1ccccc1)C(=O)N2`, the IC50 was > 50 µM (inactive).

For the compound `CC(=O)Nc1ccc(O)c(-c2nc3cc(C)ccc3o2)c1`, the IC50 was > 50 µM (inactive).

For `O=C1c2c(O)c(Cl)cc3c2[C@@]2(Oc4cc(Cl)c(O)c5c4[C@]3(O2)[C@@H]2O[C@@H]2C5=O)[C@@H]2O[C@H]12`, the pIC50 is 6.15.

`O=C(CSc1ncnc2c1oc1ccccc12)NC1CCCC1`: the pIC50 was 4.61.

For `CCn1c(=N)n(CCOc2ccc(F)cc2)c2ccccc21`, the IC50 was > 50 µM (inactive).

Regarding `CC1=CC(=O)C(C2=C(O)C(=O)C(C)=CC2=O)=C(O)C1=O`, the pIC50 is 4.59.

For the compound `COc1ccc2[nH]cc(S(=O)(=O)c3ccc(C)c(F)c3)c(=O)c2c1`, the pIC50 is 4.35.

Regarding `O=C(/C=C/c1ccc(F)cc1)N1CCC(Cc2ccccc2)CC1`, the pIC50 is 4.30.

With `Cc1ccc(NC(=O)c2ccc3nn(CC(=O)Nc4ccc(F)cc4F)c(=O)n3c2)cc1`, the IC50 is > 50 µM (inactive).

As for `COc1ccc(NC(=O)c2ccccc2OCC(=O)Nc2ccccc2C(F)(F)F)c(C)c1`, the pIC50 was 4.53.

Turning to `CC(C)Cc1nc2sc3c(NCc4ccccc4)ncnc3c2c2c1COC(C)(C)C2`, the pIC50 is 4.50.

In the case of `CCN1C(SCc2ccccc2F)=NS(=O)(=O)c2ccccc21`, the IC50 is > 50 µM (inactive).

As to `Cc1ncncc1C(=O)N1CCCC(C)(c2ncc(Cc3cccc(F)c3)o2)C1` (stereo not given), the IC50 is > 50 µM (inactive).

`COc1ccc(-n2nnc3c(SCC(=O)Nc4cc(C)on4)ncnc32)cc1`: the IC50 is > 50 µM (inactive).

Regarding `Cc1ccc2c(c1)N=C(c1ccc([N+](=O)[O-])cc1)CO2`, the IC50 was > 50 µM (inactive).

`Cc1ccc(S(=O)(=O)c2cnc(SCC(=O)Nc3ccc(Cl)cc3)nc2N)cc1C`: the IC50 was > 50 µM (inactive).

For the compound `O=C(Nc1ccc2c(c1)OCO2)C1CCN(Cc2nc3ccccc3s2)CC1`, the IC50 was > 50 µM (inactive).

Take `O=C(CCCc1c[nH]c2ccccc12)Nc1ccc2c(c1)OCCO2`: the IC50 was > 50 µM (inactive).

For the compound `COc1ccc(CCNC(=O)c2cc(C3CC3)nc3c2cnn3C(C)C)cc1`, the IC50 is > 50 µM (inactive).

Regarding `Cc1ccc2[nH]c(=O)c(CN(CC3COCCO3)S(=O)(=O)c3ccc(F)cc3)cc2c1` (stereo not given), the pIC50 is 4.72.

With `Cc1ccc(CNC(=O)CCCn2c(=O)c3sccc3n(CC(=O)OCc3ccccc3)c2=O)cc1`, the pIC50 was 5.45.

For the compound `O=C1NCc2c1c1c3ccccc3[nH]c1c1[nH]c3ccccc3c21`, the IC50 was > 50 µM (inactive).

Take `COc1cccc(NC(=O)C2C3C=CC4(O3)C2C(=O)N(CCc2ccccc2Cl)C4C(=O)NC2CCCCC2)c1` (stereo not given): the pIC50 was 4.53.

Consider `O=C(NCCN1CCCC1)C1CCN(c2cnc(N3CCCCC3)nc2)CC1`, for which the IC50 is > 50 µM (inactive).

In the case of `Cc1cnc2nc3c(cc2c1)CN(CCc1ccc(Cl)cc1)CC3`, the IC50 was > 50 µM (inactive).

As for `CCn1ccc2c(cc(C(=O)Nc3ccccc3F)n2C)c1=O`, the IC50 was > 50 µM (inactive).

`c1ccc2c(Cc3nc(-c4ccncc4)no3)cccc2c1`: the IC50 is > 50 µM (inactive).

Regarding `COc1ccc(CNC(=O)c2ccccc2N2C(=O)N3CCc4c([nH]c5ccccc45)[C@@]3(C)C2=O)cc1`, the pIC50 was 4.38.

On to `Cc1cccc(NC(=O)Cn2c(=O)n(Cc3ccc(F)cc3)c(=O)c3sccc32)c1`, for which the negative-log IC50 (pIC50) is 4.76.

With `N#Cc1c(SCCO)nc(N2CCCC2)c2c1CCCC2`, the IC50 was > 50 µM (inactive).

Turning to `CCn1c(SCC(=O)c2c(N)n(CC(C)C)c(=O)n(C)c2=O)nnc1-c1ccccc1`, the negative logarithm of the IC50 (pIC50) was 4.59.

With `CCn1cc2c(n1)c(=O)n(Cc1ccccc1)c(=O)n2CC(=O)Nc1ccc(OC)cc1`, the pIC50 is 4.92.

As to `CC(C)Cn1cc(OC(=O)c2ccc(F)cc2)c2c1nc(-c1ccc(F)cc1)n1c3ccccc3nc21`, the IC50 was > 50 µM (inactive).

For `Cc1cc(C(=O)Nc2ccc3nc(N4CCN(c5ncccn5)CC4)cc(C)c3c2)ccc1[N+](=O)[O-]`, the IC50 is > 50 µM (inactive).

Take `CN(Cc1ccccc1)S(=O)(=O)c1ccc2[nH]cc(C(=O)NCc3cccs3)c(=O)c2c1`: the pIC50 is 5.50.

`O=C1/C(=C/c2cn(-c3ccccc3)nc2-c2ccc3c(c2)OCCO3)Cc2ccccc21`: the IC50 was > 50 µM (inactive).

On to `Cc1cc(C)c(O)c(-c2cc(C(=O)Nc3ccccc3Cl)[nH]n2)c1`, for which the pIC50 is 4.90.

`COc1ccc(/C=C/C(=O)N2CCc3ccccc32)cc1S(=O)(=O)N1CCOCC1`: the IC50 is > 50 µM (inactive).

For `C[C@@H]1OC2=C(C(=O)c3cccc(O)c3C2=O)[C@H](O)[C@@H]1O`, the pIC50 was 5.35.

With `O=C(NC(Cc1ccccc1)c1nc2ccccc2[nH]1)C1CC1` (stereo not given), the IC50 is > 50 µM (inactive).

Turning to `CCc1cccc2c(C(=O)COc3ccc(C#N)cc3)c[nH]c12`, the pIC50 is 4.32.

In the case of `O=C(Nc1nc2ccccc2s1)c1ccc2c(c1)C(=O)N(Cc1cccnc1)C2=O`, the pIC50 is 4.41.

Regarding `Cc1cc(C)c2sc(N(CCCn3ccnc3)C(=O)Cc3ccccc3)nc2c1`, the pIC50 was 4.62.

`Cc1ccc(C(=O)Nc2c(C(=O)N3CCN(c4ccccc4)CC3)[nH]c3ccccc23)cc1`: the IC50 is > 50 µM (inactive).

With `COc1ccc(Nc2ncc(C(=O)Nc3ccc(Oc4ccccc4)cc3)c3ccccc23)cc1`, the IC50 is > 50 µM (inactive).

On to `O=[N+]([O-])c1ccc2c(c1)nc1n2CCN(Cc2ccco2)C1`, for which the IC50 is > 50 µM (inactive).

Turning to `CC(=O)c1ccccc1NC(=O)COc1ccc(-c2ccc(C#N)cc2)cc1`, the IC50 is > 50 µM (inactive).

For the compound `COc1cc(N)c(Cl)cc1C(=O)OCC(=O)c1ccc2c(c1)OCCO2`, the IC50 is > 50 µM (inactive).

As to `Cc1ccc(Nc2nc(C(=O)NCc3ccc4c(c3)OCO4)cc3occc23)cc1Cl`, the IC50 is > 50 µM (inactive).

Consider `CCCn1cc(C(=O)N2CCC3(CC2)CC2(CO3)Nc3ccccc3-n3cccc32)c(C)n1` (stereo not given), for which the IC50 was > 50 µM (inactive).

With `Cc1cccc(C(=O)Nc2ccccc2Sc2nc3c(c(=O)n(C)c(=O)n3C)n2C)c1`, the IC50 is > 50 µM (inactive).

On to `Cc1ccc(C(=O)Nc2cc3c4c(c2)CC(=O)N4CCC3)cc1`, for which the IC50 is > 50 µM (inactive).

`O=C(Nc1cccc(S(=O)(=O)N2CCCC2)c1)c1ccc2c(=O)n3c(nc2c1)CCCCC3`: the IC50 was > 50 µM (inactive).

As for `O=S1(=O)CCN(Cc2c(F)cccc2F)c2c(F)nc(N3CCOCC3)c(F)c21`, the IC50 is > 50 µM (inactive).

For the compound `CSc1nc(Cc2ccc(Cl)cc2)nc2ccccc12`, the IC50 is > 50 µM (inactive).

`Cc1ccc(Cc2nc(-c3ccc(=O)[nH]c3)no2)cc1`: the IC50 was > 50 µM (inactive).

Consider `COc1ccccc1OCCNC(=O)c1cc(C2CC2)nc2c1cnn2C(C)C`, for which the IC50 was > 50 µM (inactive).

For `COc1ccc(NC(=O)c2nc3n(n2)-c2ccccc2S(=O)(=O)N3)cn1`, the IC50 was > 50 µM (inactive).

Take `CN1C(=O)[C@]23CC4=CC=C[C@H](O)[C@H]4N2C(=O)[C@@]1(CO)SS3`: the IC50 was > 50 µM (inactive).

`CCCCc1nc2sc3c(NCCN4CCOCC4)ncnc3c2c2c1CCC2`: the IC50 was > 50 µM (inactive).

For `O=c1sc2ccccc2c(=O)n1Cc1cccc(C(F)(F)F)c1`, the IC50 is > 50 µM (inactive).

(Values after PubChem BioAssay AID1645868 (Buhrlage Lab, Dana-Farber Cancer Institute and Novartis …, 2021).)
